Assay results reported in US20250057748A1, “FORMULATIONS OF DIHYDROKAEMPFEROL” (DEBUT BIOTECHNOLOGY, INC., priority 2023, published 2025).

Columns and labels:
Filaggrin = assay: Skin barrier marker by flow cytometry in hDF; format: cell-based, Human; details: 0.003% DHK
Experimental: (§1) Human dermal fibroblasts (hDF) were treated with test article of interest. Barrier markers of interest were measured by flow cytometry.

Loricrin = assay: Skin barrier marker by flow cytometry in hDF; format: cell-based, Human; details: 0.003% DHK
Experimental: as §1

[1] = Venditti et al. 2013; Liang et al. 2020; cited from earlier work
[2] = DPPH antioxidant activity assay (organic medium); format: biochemical
From the text: The 2,2-diphenyl-1-picrylhydrazyl (DPPH) antioxidant assay is designed to evaluate the antioxidant activity of compositions comprising dihydrokaempferol in an organic medium. 2,2-diphenyl-1-picrylhydrazyl (DPPH) is a stable free radical used to evaluate free radical scavenging capacity of a material. In the presence of an antioxidant DPPH is reduced, resulting in the formation of a colorless solution. Reduction of absorbance at 517 nm is standardized to solvent control as an indication of DPPH scavenging.

Interleukin 6 (IL6) = assay: Differential gene expression in keratinocytes; format: cell-based; details: normal human epidermal keratinocytes, 1% DHK
From the text: (§2) Log 2fold changes are detailed in FIG. 4. Table 13, provided below, highlights certain examples of differential gene expression in normal human epidermal keratinocytes treated with compositions comprising 1% DHK.

[3] = system: C-X-C Motif Chemokine Ligand 2 (CXCL2); assay: Differential gene expression in keratinocytes; format: cell-based; details: normal human epidermal keratinocytes, 1% DHK
From the text: as §2

[4] = system: Transient Receptor Potential Cation Channel Subfamily (TRPV6); assay: Differential gene expression in keratinocytes; format: cell-based; details: normal human epidermal keratinocytes, 1% DHK
From the text: as §2

[5] = system: Fibroblast Growth Factor 2 (FGF2); assay: Differential gene expression in keratinocytes; format: cell-based; details: normal human epidermal keratinocytes, 1% DHK
From the text: as §2

[6] = system: Tumor Necrosis Factor (TNF); assay: Differential gene expression in keratinocytes; format: cell-based; details: normal human epidermal keratinocytes, 1% DHK
From the text: as §2

[7] = system: C-X-C Motif Chemokine Ligand 1 (CXCL1); assay: Differential gene expression in keratinocytes; format: cell-based; details: normal human epidermal keratinocytes, 1% DHK
From the text: as §2

[8] = system: Vascular Endothelial Growth Factor A (VEGFA); assay: Differential gene expression in keratinocytes; format: cell-based; details: normal human epidermal keratinocytes, 1% DHK
From the text: as §2

Thrombospondin 4 (THBS4) = assay: Differential gene expression in keratinocytes; format: cell-based; details: normal human epidermal keratinocytes, 1% DHK
From the text: as §2

Interleukin 24 (IL24) = assay: Differential gene expression in keratinocytes; format: cell-based; details: normal human epidermal keratinocytes, 1% DHK
From the text: as §2

Elastin = assay: Anti-aging: elastin ELISA in hDF; format: cell-based, Human
Experimental: Human dermal fibroblasts (hDF) were treated with test article of interest. Elastin was quantified by ELISA.

## O=C1c2c(O)cc(O)cc2O[C@H](c2ccc(O)cc2)[C@H]1O [dihydrokaempferol]
Filaggrin
  % Total Population: 42.2%
Loricrin
  % Total Population: 19.3%
[1]
  Function as antioxidant: antioxidant
[2]; DPPH, 0.016 % w/w
  % Radical Inhibition: 16.54%
[2]; DPPH, 0.031 % w/w
  % Radical Inhibition: 31.00%
[2]; DPPH, 0.063 % w/w
  % Radical Inhibition: 61.12%
[2]; DPPH, organic solvent system, calculated
  IC50 antioxidant activity: 0.05 % w/w
[2]; organic solvent systems
  Lowest concentration with antioxidant activity: 0.016 % w/w
Interleukin 6 (IL6)
  Log2 Fold Change: −5.54
[3]
  Log2 Fold Change: −4.19
[4]
  Log2 Fold Change: 2.19
[5]
  Log2 Fold Change: 1.82
[6]
  Log2 Fold Change: −3.39
[7]
  Log2 Fold Change: −1.91
[8]
  Log2 Fold Change: 2.32
Thrombospondin 4 (THBS4)
  Log2 Fold Change: 3.30
Interleukin 24 (IL24)
  Log2 Fold Change: −2.01
Elastin; 0.001% DHK
  Elastin: 23.1 ng/mL
Elastin; 0.003% DHK
  Elastin: 16.6 ng/mL
Elastin; 0.005% DHK
  Elastin: 15.9 ng/mL
